Like-named read-outs stand apart in the source and are kept apart here. Values belong to the compound of their own block, whether it stands above or below them.
What was measured:
GlgC [1] = target: T1, GlgC (Synechocystis sp. PCC 6803, UniProt P52415); assay: continuous GlgC-GlgA1 / pyruvate kinase / LDH coupled assay, A340; type: biochemical; settings: read-out: 3-PGA (mM) / 0.00
T1 construct: shorter variant lacking first 10 residues of P52414, starts VKRVLAIILGG (primer 3); N-terminal His-tag (pET28a), E. coli Rosetta-gami (DE3); active as tetramer
T1 sequence (P52415 11-439): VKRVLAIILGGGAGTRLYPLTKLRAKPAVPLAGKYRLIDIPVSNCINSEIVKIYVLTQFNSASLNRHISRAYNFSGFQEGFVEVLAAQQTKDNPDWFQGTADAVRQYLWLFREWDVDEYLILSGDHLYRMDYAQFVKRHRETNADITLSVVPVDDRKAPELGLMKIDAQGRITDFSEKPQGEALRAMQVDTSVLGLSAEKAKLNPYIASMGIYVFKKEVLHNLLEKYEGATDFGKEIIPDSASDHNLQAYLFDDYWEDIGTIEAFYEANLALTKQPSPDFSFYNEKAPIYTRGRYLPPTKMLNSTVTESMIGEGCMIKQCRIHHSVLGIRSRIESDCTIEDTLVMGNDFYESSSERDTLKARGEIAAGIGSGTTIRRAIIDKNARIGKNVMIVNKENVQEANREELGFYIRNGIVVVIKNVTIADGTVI

GlgC [2] = target: T1, GlgC; assay: as above; type: biochemical

IC50 (GlgC [1]): 0.42 mM
SMILES: O=P(O)(O)O [Pi]

EC50 (GlgC [2]): 430 µM
SMILES: O=C(O)[C@H](O)COP(=O)(O)O [3-PGA]

EC50 (GlgC [2]; activator, no 3-PGA, 0.25 mM Glc-1P, 2 mM ATP, 12 mM MgCl2, pH 8.0, 30 °C): 2300 µM
SMILES: O=P(O)(O)OC[C@H]1OC(O)(CO)[C@@H](O)[C@@H]1O (stereo partly drawn) [Fru-6P]
